# Literature values in patent publication US20050176827A1, “Compositions and methods for glycogen synthesis” (priority 2002, published 2005).
# System: pancreatic beta cell
# Conditions: micromolar concentrations; direct effect on pancreatic beta cell, glucose dependent
smiles,measurement,value
CC(O)C(C)C(N)C(=O)O (stereo not shown) [4-hydroxyisoleucine],effect on glucose-induced insulin secretion,stimulate glucose-induced insulin secretion
